Legend:
[1] = target: T1, PYR1 Y58H K59R F108A S122G (Arabidopsis thaliana, UniProt O49686, F108A/K59R/S122G/Y58H); assay: Y2H Recombination Mutagenesis (HAB1, X-gal); type: cell-based
T1 construct: expressed in transfected cells; host or cells: S. cerevisiae Y190 pACT-HAB1
Description: As a second approach, we used recombination-based mutagenesis to search for mutant combinations that enhance the sensitivity of PYR1^K59R,F108A,S122G to mandipropamid. Nucleotide excision and exchange technology (NExT) (Müller et al., 2005) was used to mutagenize an equal amount of PYR1^K59R,F108A,S122G template with an equal amount of template DNA that was made by pooling plasmid DNA from the NNK plasmid libraries made above for each of the 23 ligand-contacting residues in the PYR1^K59R,F108A,S122G backbone. Thus, PYR1^K59R,F108A,S122G was mutagenized with recombination-based mutagenesis using a library of pocket site mutations. An ˜200,000 member library of mutagenized clones was generated and was transformed into the MAV99 pACT-HAB1 reporter strain. Selections were conducted on plates containing 0.5 μM mandipropamid and appropriate nutrients and amino acids. To establish if strain growth was ligand dependent, the positive clones were subsequently tested for growth on selective plates lacking mandipropamid. Next, plasmids were isolated from strains showing ligand-dependent growth and the mandipropamid sensitivity of mutant receptors characterized using X-gal staining (after transformation into the into the Y190 pACT-HAB1 reporter strain). […]

[2] = system: MDP1 and MDP2 transgenic plants; assay: qRT-PCR of ABA-regulated genes RD29B and RAB18; type: in vivo, Arabidopsis; conditions: MDP1 and MDP2, 2 μM mandipropamid, 8 hours
Experimental: (§1) One of ABA's major effects is to regulate gene expression. We therefore examined the effects of ABA and mandipropamid on gene expression in wild type, PYR-OX, MDP1 and MPD2 transgenic plants. Seed of the wild type or transgenic lines were surface sterilized, stratified for 4 days at 4° C. and then grown for 10 days at room temperature under continuous illumination in a liquid culture consisting of 0.5×MS salts and 0.5% sucrose and grown with continuous shaking to provide aeration. After 10 days, the culture solutions were adjusted to contain 50 μM ABA, 2 μM mandipropamid, or a mock treatment. After 8 hours exposure to the test compounds RNA was isolated using RNAEasy™ Plant RNA isolation kit (Qiagen, USA) and treated with DNAse. The purified RNA was utilized in qRT-PCR reactions using primers for the ABA-regulated genes RD29B or RAB18. Biological triplicate and triple technical replicate measurements were conducted. To perform qRT-PCR analyses, cDNA was generated from 5 μg of total RNA using superscript reverse transcriptase III (Invitrogen, USA), in reaction mixture containing a oligo-dT20 (SEQ ID NO:110) and a ribosomal RNA primer. Real-time quantitative PCR analysis was performed by ΔCt method of relative quantification. PCR mixtures contained cDNA, Maxima® SYBR green/Fluorescein qPCR master mix (Fermentas, USA) and 330 nM of each gene-specific primer. RT-PCRs were conducted using a BioRad CFX96 Real-Time PCR System and the data were processed using the BioRad CFX Manager software (BioRad, USA). PCRs were performed under the following cycling conditions: 3 min at 95° C., followed by 40 cycles of 10 sec at 95° C., 10 sec at 55° C. and 30 sec at 72° C. in 96-well optical reaction plates (BioRad, USA). The specificity of amplicons was verified by melting curve (disassociation) analysis (60-95° C.) after 40 cycles. Input cDNA was normalized using an internal control gene, PEX4 (AT5G25760).

PYR1-OX = assay: qRT-PCR of ABA-regulated genes RD29B and RAB18; type: in vivo, Arabidopsis; conditions: 2 μM mandipropamid, 8 hours
Experimental: as §1

wild type = assay: qRT-PCR of ABA-regulated genes RD29B and RAB18; type: in vivo, Arabidopsis; conditions: 2 μM mandipropamid, 8 hours
Experimental: as §1

[3] = target: T2, PYR1 K59R F108A S122G F159L (Arabidopsis thaliana, UniProt O49686, F108A/F159L/K59R/S122G); assay: Y2H NNK Mutagenesis (HAB1, X-gal); type: cell-based
T2 construct: expressed in transfected cells; host or cells: S. cerevisiae Y190 pACT-HAB1
T2 sequence (O49686 whole entry K59R/F108A/S122G/F159L): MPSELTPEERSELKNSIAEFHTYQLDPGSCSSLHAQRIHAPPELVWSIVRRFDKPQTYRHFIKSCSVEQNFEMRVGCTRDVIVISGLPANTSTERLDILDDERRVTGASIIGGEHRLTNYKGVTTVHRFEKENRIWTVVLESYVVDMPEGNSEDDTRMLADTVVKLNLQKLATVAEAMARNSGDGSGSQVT
T2 sequence (Q9CAJ0 23-511 partner): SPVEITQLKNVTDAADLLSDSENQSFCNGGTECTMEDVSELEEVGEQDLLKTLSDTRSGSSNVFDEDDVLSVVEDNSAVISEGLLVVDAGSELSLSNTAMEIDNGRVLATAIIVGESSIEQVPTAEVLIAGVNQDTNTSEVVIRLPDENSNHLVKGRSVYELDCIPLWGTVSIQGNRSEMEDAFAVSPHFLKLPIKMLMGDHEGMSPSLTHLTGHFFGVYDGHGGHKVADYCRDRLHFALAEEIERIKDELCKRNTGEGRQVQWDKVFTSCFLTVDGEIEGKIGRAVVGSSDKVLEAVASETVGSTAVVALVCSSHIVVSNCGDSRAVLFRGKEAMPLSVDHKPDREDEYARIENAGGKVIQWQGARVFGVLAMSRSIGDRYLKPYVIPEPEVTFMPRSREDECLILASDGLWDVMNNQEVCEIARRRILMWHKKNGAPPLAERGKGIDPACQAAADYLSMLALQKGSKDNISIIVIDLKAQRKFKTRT
Experimental: (§2) The preceding efforts identified PYR1^K59R,F108A,S122G, which is responsive to mandipropamid concentrations as low as 1 μM. We next attempted to improve the mandipropamid receptor by screening for additional pocket-located mutations that improve compound responsiveness. We subjected PYR1^K59R,F108A,S122G to two separate mutagenesis experiments. We first examined the effects of adding single additional mutations at each of the other 23 ligand-contacting residues that are not altered in the PYR1^K59R,F108A,S122G backbone, using NNK codon-randomization primers. Each NNK primer was used to generate a pool of PYR1^K59R,F108A,S122G receptors containing additional mutations at a single ligand-contacting residue. DNA for this mutant pool was prepared and then transformed into a pACT-HAB1 MAV99 reporter strain, which allows URA3 based selection of active receptors (Peterson et al., 2010). The pooled yeast cells were plated on media containing 0.5 μM mandipropamid, a concentration too low to allow growth of a control MAV99 pACT-HAB1 reporter strain expressing pBD-PYR1^K59R,F108A,S122G. […] Mutants enabling ligand-dependent interactions were sequenced and plasmid DNA for these mutants was isolated and introduced into Y190 pACT-HAB1 so that X-gal staining could be utilized to evaluate receptor sensitivity. This process was repeated for each of the remaining 22 NNK primers. These efforts yielded 10 mutations (V81C, V81I, V81T, V83L, L87A, F159L, F159M, F159V, A160V, V164I) that enhance the mandipropamid sensitivity of PYR1^K59R,F108A,S122G (see entries labeled “NNK Mutagenesis Screen” in Table 1).

[4] = target: T3, PYR1 K59R F108A S122G F159M (Arabidopsis thaliana, UniProt O49686, F108A/F159M/K59R/S122G); assay: Y2H NNK Mutagenesis (HAB1, X-gal); type: cell-based
T3 construct: expressed in transfected cells; host or cells: S. cerevisiae Y190 pACT-HAB1
T3 sequence (O49686 whole entry K59R/F108A/S122G/F159M): as the sequence (O49686 whole entry K59R/F108A/S122G/F159L) above, with L159M counted along it
T3 sequence (Q9CAJ0 23-511 partner): as the sequence (Q9CAJ0 23-511 partner) above
Experimental: as §2

[5] = target: T4, PYR1 K59R F108A S122G V164I (Arabidopsis thaliana, UniProt O49686, F108A/K59R/S122G/V164I); assay: Y2H NNK Mutagenesis (HAB1, X-gal); type: cell-based
T4 construct: expressed in transfected cells; host or cells: S. cerevisiae Y190 pACT-HAB1
T4 sequence (O49686 whole entry K59R/F108A/S122G/V164I): as the sequence (O49686 whole entry K59R/F108A/S122G/F159L) above, with L159F, V164I counted along it
T4 sequence (Q9CAJ0 23-511 partner): as the sequence (Q9CAJ0 23-511 partner) above
Experimental: as §2

[6] = target: T5, PYR1 K59R F108A S122G V83L (Arabidopsis thaliana, UniProt O49686, F108A/K59R/S122G/V83L); assay: Y2H NNK Mutagenesis (HAB1, X-gal); type: cell-based
T5 construct: expressed in transfected cells; host or cells: S. cerevisiae Y190 pACT-HAB1
T5 sequence (O49686 whole entry K59R/V83L/F108A/S122G): as the sequence (O49686 whole entry K59R/F108A/S122G/F159L) above, with V83L, L159F counted along it
T5 sequence (Q9CAJ0 23-511 partner): as the sequence (Q9CAJ0 23-511 partner) above
Experimental: as §2

T1 sequence (O49686 whole entry Y58H/K59R/F108A/S122G): as the sequence (O49686 whole entry K59R/F108A/S122G/F159L) above, with Y58H, L159F counted along it
T1 sequence (Q9CAJ0 23-511 partner): as the sequence (Q9CAJ0 23-511 partner) above

In the case of `C#CCOc1ccc(CCNC(=O)C(OCC#C)c2ccc(Cl)cc2)cc1OC` (centres unmarked) [Mandipropamid, mandipropamid], the Threshold [1] was 0.25 µM, the “transcription of RD29B and RAB18” value [2] was “high-level transcription” and the “transcription of RD29B and RAB18” value (PYR1-OX) was “does not do so”. The “transcription of RD29B and RAB18” value (wild type) was “does not do so”, the Threshold [3] was 0.05 µM and the Threshold [4] was 0.25 µM. It also gave a Threshold [5] of 0.25 µM and a Threshold [6] of 0.05 µM.
